Reference: US9796700B2 (Celgene CAR LLC, priority 2013, dated 2017)
Where two headings read alike, the source gives them in different places.

Key:
Erk1 = Erk1 (Homo sapiens (Human), UniProt P27361); experiment: Protein Mass Modification Assay (intact protein MALDI); format: binding
Outline: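 Percent covalent modification comes from the intact-protein MALDI centroid mass shift, treated versus control, divided by compound MW. Before analysis, human Erk1 was exposed to compound at 10-fold excess over protein for 60 min at room temperature.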

MEK1 activated ERK1 = MEK1 activated ERK1 (Homo sapiens (Human), UniProt P27361); experiment: Omnia continuous-read kinase assay for potency against MEK1 activated ERK1; format: biochemical
Outline: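 Apparent IC50 came from initial reaction slopes (RFU vs time) plotted against log inhibitor with a variable-slope fit. Reactions were started with ERK1 (4 nM final) added to 50 μM ATP, roughly at its appKM, and 10 μM Sox-conjugated ST17 peptide in 20 mM Tris pH 7.5, 5 mM MgCl2. Fluorescence was monitored every 71 seconds.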

[1] = MEK1 activated ERK1, WT, ATP at KM

Chain of MEK1 activated ERK1 (P27361 whole entry): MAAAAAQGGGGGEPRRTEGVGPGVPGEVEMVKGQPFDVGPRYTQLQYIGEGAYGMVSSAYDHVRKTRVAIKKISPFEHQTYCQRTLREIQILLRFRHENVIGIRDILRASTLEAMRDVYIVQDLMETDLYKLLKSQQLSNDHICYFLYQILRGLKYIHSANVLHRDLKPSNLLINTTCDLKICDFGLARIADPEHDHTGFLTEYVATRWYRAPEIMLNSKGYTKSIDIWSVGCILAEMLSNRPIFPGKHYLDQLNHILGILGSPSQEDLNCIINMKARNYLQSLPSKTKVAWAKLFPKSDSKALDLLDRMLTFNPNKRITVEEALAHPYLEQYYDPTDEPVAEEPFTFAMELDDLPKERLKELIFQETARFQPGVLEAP
Chain of Erk1 (P27361 whole entry, looked up): as the sequence (P27361 whole entry) above

SMILES | ERK1 Mass Mod (%) (Erk1) | IC50 (MEK1 activated ERK1; [1]) | IC50 (MEK1 activated ERK1; read-out: ERK1 Omnia WT ATP KM IC50)
C#CCOc1cc(C)c(Nc2ncc(Cl)c(Nc3ccccc3NC(=O)C=C)n2)cc1C(N)=O [Compound I-228, 5-((4-((2-acrylamidophenyl)amino)-5-chloropyrimidin-2-yl)amino)-4-methyl-2-(prop-2-yn-1-yloxy)benzamide] | G (proived a mass modification ≦30%) | < 0.1 µM | 
C=CC(=O)Nc1ccccc1Nc1nc(Nc2ccc(N3CCC[C@H]3CO)cc2C#N)ncc1Cl [Compound I-160, (S)—N-(2-((5-chloro-2-((2-cyano-4-(2-(hydroxymethyl)pyrrolidin-1-yl)phenyl)amino)pyrimidin-4-yl)amino)phenyl)acrylamide] | G (proived a mass modification ≦30%) | > 1 µM | 
CCC(=O)Nc1ccccc1Nc1nc(Nc2ccc3c(c2OC)CCCC(=O)N3CC)ncc1Cl [Compound I-315, N-(2-((5-chloro-2-((1-ethyl-6-methoxy-2-oxo-2,3,4,5-tetrahydro-1H-benzo[b]azepin-7-yl)amino)pyrimidin-4-yl)amino)phenyl)propionamide] | G (proived a mass modification ≦30%) | > 1 µM | 
C=CC(=O)Nc1ccccc1Nc1nc(N[C@@H]2CCN(C(=O)OC)C2)ncc1C(F)(F)F [Compound I-61, (R)-Methyl 3-((4-((2-Acrylamidophenyl)amino)-5-(trifluoromethyl)pyrimidin-2-yl)amino)pyrrolidine-1-carboxylate] | E (provided a mass modification of ≧70%) | > 1 µM | 
C=CC(=O)Nc1ccccc1Nc1nc(N[C@H]2CCCN(C(=O)OC)C2)ncc1C(F)(F)F [Compound I-17, (S)-Methyl 3-((4-((2-acrylamidophenyl)amino)-5-(trifluoromethyl)pyrimidin-2-yl)amino) piperidine-1-carboxylate] | F (provided a mass modification of 31-69%) | < 0.1 µM | 
C=CC(=O)Nc1cc(OC)ccc1Nc1nc(Nc2ccc(-n3ccnc3)cc2C#N)ncc1Cl [Compound I-157, N-(2-((5-chloro-2-((2-cyano-4-(1H-imidazol-1-yl)phenyl)amino)pyrimidin-4-yl)amino)-5-methoxyphenyl)acrylamide] | F (provided a mass modification of 31-69%) | > 1 µM | 
C=CC(=O)Nc1ccccc1Nc1nc(Nc2cc(C(N)=O)ccc2OC)ncc1C(F)(F)F [Compound I-70, 3-((4-((2-Acrylamidophenyl)amino)-5-(trifluoromethyl)pyrimidin-2-yl)amino)-4-methoxybenzamide] | E (provided a mass modification of ≧70%) | < 0.1 µM | 
C=CC(=O)Nc1ccccc1Nc1nc(N[C@H]2CCCN(C(C)=O)C2)ncc1C(F)(F)F [Compound I-10, (S)—N-(2-(2-(1-acetylpiperidin-3-ylamino)-5-(trifluoromethyl)pyrimidin-4-ylamino)phenyl)acrylamide] | E (provided a mass modification of ≧70%) | < 0.1 µM | 
C=C(C)S(=O)(=O)Nc1cc(F)ccc1Nc1nc(N[C@H]2CCCN(C(=O)CO)C2)ncc1C(F)(F)F [Compound I-54, (S)—N-(5-Fluoro-2-((2-((1-(2-hydroxyacetyl)piperidin-3-yl)amino)-5-(trifluoromethyl)pyrimidin-4-yl)amino)phenyl)prop-1-ene-2-sulfonamide] | G (proived a mass modification ≦30%) | < 0.1 µM | 
C=C(C)S(=O)(=O)Nc1cc(F)ccc1Nc1nc(Nc2cc(C(C)=O)ccc2C)ncc1Cl [Compound I-243, N-(2-((2-((5-acetyl-2-methylphenyl)amino)-5-chloropyrimidin-4-yl)amino)-5-fluorophenyl)prop-1-ene-2-sulfonamide] | G (key: E: provided a mass modification of ≧70%; F: provided a mass modification of 31-69%; G: proived a mass modification ≦30%) |  | < 0.1 µM
C=CC(=O)Nc1ccccc1Nc1nc(N[C@H]2CCCN(C(=O)C3CC3)C2)ncc1Cl [Compound I-136, (S)—N-(2-((5-chloro-2-((1-(cyclopropanecarbonyl)piperidin-3-yl)amino)pyrimidin-4-yl)amino)phenyl)acrylamide] | E (provided a mass modification of ≧70%) | < 0.1 µM | 
C=CC(=O)Nc1ccccc1Nc1nc(N[C@H]2CCCN(C(=O)CO)C2)ncc1Cl [Compound I-123, (S)—N-(2-((5-chloro-2-((1-(2-hydroxyacetyl)piperidin-3-yl)amino)pyrimidin-4-yl)amino)phenyl)acrylamide] | E (provided a mass modification of ≧70%) | < 0.1 µM | 
C=CC(=O)Nc1ccccc1Nc1nc(Nc2ccc(N(CCNC(=O)OC(C)(C)C)C(C)=O)cc2C(F)(F)F)ncc1Cl [Compound I-170, tert-butyl (2-(N-(4-((4-((2-acrylamidophenyl)amino)-5-chloropyrimidin-2-yl)amino)-3-(trifluoromethyl)phenyl)acetamido)ethyl)carbamate] | E (provided a mass modification of ≧70%) | > 1 µM | 
C=CC(=O)Nc1ccccc1Nc1nc(N[C@H]2CCCN(C(=O)C(C)C)C2)ncc1Cl [Compound I-137, (S)—N-(2-((5-chloro-2-((1-isobutyrylpiperidin-3-yl)amino)pyrimidin-4-yl)amino)phenyl)acrylamide] | E (provided a mass modification of ≧70%) | < 0.1 µM | 
C=CC(=O)Nc1ccccc1Nc1nc(N[C@H]2CCC[C@@H](C(N)=O)C2)ncc1C(F)(F)F [Compound I-118, (1R,3S)-3-((4-((2-acrylamidophenyl)amino)-5-(trifluoromethyl)pyrimidin-2-yl)amino)cyclohexanecarboxamide] | E (provided a mass modification of ≧70%) | < 0.1 µM | 
CCC(=O)Nc1ccccc1Nc1nc(N[C@H]2CCCN(C(=O)CO)C2)ncc1C(F)(F)F [Compound I-318, (S)—N-(2-((2-((1-(2-hydroxyacetyl)piperidin-3-yl)amino)-5-(trifluoromethyl)pyrimidin-4-yl)amino)phenyl)propionamide] | G (proived a mass modification ≦30%) | < 0.1 µM | 
CCC(=O)Nc1ccccc1Nc1nc(N[C@H]2CCCN(C(C)=O)C2)ncc1C(F)(F)F [Compound I-317, (S)—N-(2-((2-((1-acetylpiperidin-3-yl)amino)-5-(trifluoromethyl)pyrimidin-4-yl)amino)phenyl)propionamide] | G (proived a mass modification ≦30%) | < 0.1 µM | 
C=CC(=O)Nc1ccccc1Nc1nc(Nc2ccc(NC(C)=O)cc2C(F)(F)F)ncc1Cl [Compound I-150, N-(2-((2-((4-acetamido-2-(trifluoromethyl)phenyl)amino)-5-chloropyrimidin-4-yl)amino)phenyl)acrylamide] | E (provided a mass modification of ≧70%) | > 1 µM | 
C=CC(=O)Nc1ccccc1Nc1ccnc(Nc2ccc(N3CCN(C(C)=O)CC3)cc2OC)n1 [Compound I-154, N-(2-((2-((4-(4-acetylpiperazin-1-yl)-2-methoxyphenyl)amino)pyrimidin-4-yl)amino)phenyl)acrylamide] | G (proived a mass modification ≦30%) | > 1 µM | 
C=CC(=O)N[C@H]1CCCC1Nc1nc(N[C@H]2CCCN(C(C)=O)C2)ncc1C(F)(F)F (stereo in doubt) [Compound I-24, N-((1S,2S)-2-((2-(((S)-1-Acetylpiperidin-3-yl)amino)-5-(trifluoromethyl)pyrimidin-4-yl)amino)cyclopentyl)acrylamide] | G (proived a mass modification ≦30%) | > 1 µM | 
C=CC(=O)Nc1cc(C)ccc1Nc1nc(Nc2cc(OC)ncc2C)ncc1C(F)(F)F [Compound I-90, N-(2-((2-((2-Methoxy-5-methylpyridin-4-yl)amino)-5-(trifluoromethyl)pyrimidin-4-yl)amino)-5-methylphenyl)acrylamide] | E (provided a mass modification of ≧70%) | < 0.1 µM | 
C=CC(=O)Nc1cc(OC)ccc1Nc1nc(Nc2ccc(N3CCNCC3)cc2OC)ncc1Cl [Compound I-162, N-(2-((5-chloro-2-((2-methoxy-4-(piperazin-1-yl)phenyl)amino)pyrimidin-4-yl)amino)-5-methoxyphenyl)acrylamide] | E (provided a mass modification of ≧70%) | > 1 µM | 
C=CC(=O)Nc1ccccc1Oc1nc(Nc2ccc(N3CCN(C(C)=O)CC3)cc2OC)ncc1C(N)=O [Compound I-258, 2-((4-(4-acetylpiperazin-1-yl)-2-methoxyphenyl)amino)-4-(2-acrylamidophenoxy)pyrimidine-5-carboxamide] | E (provided a mass modification of ≧70%) | < 0.1 µM | 
C=CC(=O)Nc1cc(Cl)ccc1Nc1nc(Nc2cc(OC)ncc2C)ncc1C(F)(F)F [Compound I-289, N-(5-Chloro-2-((2-((2-methoxy-5-methylpyridin-4-yl)amino)-5-(trifluoromethyl)pyrimidin-4-yl)amino)phenyl)acrylamide] | E (provided a mass modification of ≧70%) | < 0.1 µM | 
C=CC(=O)Nc1ccccc1Nc1nc(Nc2ccc(N3CCC[C@H]3CO)cc2C#N)ncc1Cl [Compound I-172, (S)—N-(2-((5-chloro-2-((2-cyano-4-(2-(hydroxymethyl)pyrrolidin-1-yl)phenyl)amino)pyrimidin-4-yl)amino)phenyl)acrylamide] | F (provided a mass modification of 31-69%) | > 1 µM | 
C=CC(=O)Nc1cc(C)ccc1Nc1nc(N[C@H]2CCCN(S(=O)(=O)C=C)C2)ncc1C(F)(F)F [Compound I-277, (S)—N-(5-Methyl-2-((5-(trifluoromethyl)-2-((1-(vinylsulfonyl)piperidin-3-yl)amino)pyrimidin-4-yl)amino)phenyl)acrylamide] | E (provided a mass modification of ≧70%) | > 1 µM | 
